This note sets out measurements from patent US20250327028A1, “ENGINEERED PLATELETS AS TARGETED PROTEIN DEGRADERS” (Wisconsin Alumni Research Foundation, priority 2024, published 2025).

For experiment [1], the system named is 4T1-Luc tumors. Briefly: Treatment efficacy in post-surgery BALB/c mice with orthotopic 4T1-Luc breast cancer. The class given is in vivo. As to conditions: 2×10^8 platelets i.v. or free HAC 5 mg/kg i.p., every third day for 4 times. The source says: Evaluation of treatment efficacy and biosafety in post-surgical 4T1 tumor-bearing mice: Post-surgery BALB/c mice with orthotopic 4T1-Luc-breast cancer were used to evaluate the tumor recurrence, metastasis, and biosafety profiles after iDePLT or eDePLT treatments. The treatment efficacy of iDePLT was also studied in the post-surgery NSG mice with orthotopic patient-derived xenografts (PDX) breast cancer.
Establishment of post-surgery models with BALB/c mice: 1×10^6 4T1-Luc cells were suspended in a PBS containing 50% Matrigel® (Corning®/354234). Female 8-week-old BALB/c mice were anesthetized and injected with 50 μL of the cell suspensions into the fourth mammary gland fat pads. After the tumor volumes reached about 100-200 mm^3, the tumor-bearing mice were anesthetized and placed under the microscope, followed by surgical resection to totally remove the visible tumor tissues. Following wound closure, the post-surgery mice were randomly assigned to different treatment groups.
Evaluation of treatment efficacy and biosafety in post-surgery BALB/c mice: As for the treatments with platelets, the platelets were freshly isolated from the healthy female BALB/c mice and suspended in PBS for intravenous (i.v.) injection after the necessary engineering. The free iHAC and eHAC were intraperitoneally (i.p.) injected after dispersing in the formulation of 10% DMSO, 40% polyethylene glycol 300 (PEG300), 5% Tween TM-80, and 45% saline. From the same day after surgery, the mice were anesthetized and i.p. injected with D-luciferin potassium salt (150 mg/kg) in 100 μL in PBS. The bioluminescence of post-surgery mice in each group was detected by Perkin Elmer IVIS every five days from the day of surgery, and intensity was analyzed by Living Image Software v.4.3.1. […] During the treatment course, the body weight of each post-surgery mouse was monitored daily. […]

Experiment [2] addresses T1, PD-L1 (Homo sapiens, UniProt Q9NZQ7).
T1 construct: endogenous in cells; host or cells: HSP90α-KO MDA-MB-231
Briefly: PD-L1 distribution in WT MDA-MB-231 cells (fluorescence observation). As to conditions: 2 h, compared to PU-H71 plus BMS-1166. Type of experiment: cell-based. Here is the method: PD-L1 distribution in WT MDA-MB-231 cells: 5×10^4 WT MDA-MB-231 cells were seeded in a confocal dish and cultured for 24 h at 37° C. Then, the cells were treated with eHAC or the combination of PU-H71 plus BMS-1166 at 0.5 μM for 2 h. Subsequently, the cells were washed with PBS twice and fixed with 4% PFA at room temperature for 20 min. The following procedures were the same as the above colocalization observation except for replacing the anti-LAMP1 antibody with rabbit anti-PD-L1 antibody (Invitrogen/PA5-20343).

Experiment [3] addresses T1, PD-L1. Briefly: PD-L1 degradation in HSP90α-KO MDA-MB-231 cells. Type of experiment: cell-based. From the text:
(§1) Immunoblot analysis: Immunoblot analysis was used to evaluate the expression of BRD4, HSP90, HSP90a, and PD-L1 in 4T1, WT MDA-MB-231, HSP90α-KO MDA-MB-231 or PEA-10 cells after various treatments and also served as the detection method for IP or co-IP experiments. The procedures for preparing IP or co-IP samples were indicated in the relevant experimental parts.
(§2) Sample preparation for various cancer cells after free HAC treatment: Various cells, including 4T1, WT MDA-MB-231, HSP90α-KO MDA-MB-231, or PEA-10 cells, were seeded in 6-well culture plates with a density of 5×10^4 cells in each well and cultured for 24 h. Then, if HAI pretreatment was performed, the cells were incubated in the HAI-containing blank medium at different concentrations for 2 h and washed with PBS twice before the following treatments. […]
(§3) General procedures for immunoblot analysis: After a 30-min lysis, the lysates were centrifuged at 10,000 g for 10 minutes at 4° C., and the corresponding supernatants were collected, followed by quantification of the total proteins in the supernatant through the BCA assay. […] Finally, the bands were treated with electrochemiluminescence (ECL) western blot substrate, detected by the iBright™ imaging system and quantified with ImageJ software. […]

For experiment [4], the target named is T2, PD-L1 (Mus musculus, UniProt Q9EP73).
T2 construct: endogenous in cells; host or cells: 4T1
T2 sequence (Q9EP73 19-290): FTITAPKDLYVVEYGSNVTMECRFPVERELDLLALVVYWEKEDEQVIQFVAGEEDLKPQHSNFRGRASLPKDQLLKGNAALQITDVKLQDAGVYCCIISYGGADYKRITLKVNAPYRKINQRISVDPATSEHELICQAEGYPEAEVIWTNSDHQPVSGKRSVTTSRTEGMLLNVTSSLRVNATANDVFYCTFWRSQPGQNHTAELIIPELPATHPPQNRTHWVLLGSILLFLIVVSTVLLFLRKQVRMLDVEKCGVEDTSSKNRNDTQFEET
Briefly: Immunoblot analysis of PD-L1 degradation in 4T1 cells after free HAC treatment. The class given is cell-based, murine.
Excerpt: as §1
Sample preparation for various cancer cells after free HAC treatment: Various cells, including 4T1, WT MDA-MB-231, HSP90α-KO MDA-MB-231, or PEA-10 cells, were seeded in 6-well culture plates with a density of 5×10^4 cells in each well and cultured for 24 h. Then, if HAI pretreatment was performed, the cells were incubated in the HAI-containing blank medium at different concentrations for 2 h and washed with PBS twice before the following treatments. The medium in the corresponding wells was replaced with 1 mL of blank medium containing the DMSO vehicle, HACs, or the combinations of various free ligands at the predetermined concentrations. After incubation for the indicated time points, cells were washed with PBS and lysed on ice with the relevant lysis buffer containing PMSF (1 mM) and the phosphatase inhibitor cocktail for 30 min. As for the conditioned medium (CM), the culturing complete medium of the corresponding cancer cells in each well was collected after 24-h incubation and subjected to centrifugation at 2000 rpm for 5 min to obtain the supernatant. The filtrate of the supernatants was collected following filtration over a 0.45 μm filter, serving as the CM. Regarding the cell samples for BRD4 detection, the lysis buffer containing HEPES-KOH (pH=7.5, 10 mM), NaCl (500 mM), EDTA (5 mM), NP-40 (1%), and SDS (0.1%) was used with the indicated PMSF and phosphatase inhibitor cocktail. As for PD-L1 detection, RIPA buffer (Thermo Fisher Scientific/J63306.AP) was used with the indicated PMSF and phosphatase inhibitor cocktail.
as §3, with “assay. Afterward, the proteins in the supernatant were mixed with the loading buffer and heated at 95° C. for 15 min. Equal amounts of proteins from different samples ([…]) were loaded into the Bis-Tris gel formulated with Bis-Tis buffer, 30% acrylamide/Bis, 10% ammonium persulfate (APS) solution, and TEMED.” for “assay.”

Experiment [5] relates to 4T1-Luc tumors. Briefly: Flow cytometry and ELISA of infiltrated effector T cells and cytokines within tumor tissues of post-surgery mice. As to conditions: flow cytometry, two weeks after last treatment. The class given is in vivo, BALB/c mice. Here is the method:
Flow cytometry analysis and ELISA assay were adopted to study the infiltrated effector T cells and immune-associated cytokines within the tumor tissues. The same post-surgery mouse models were established and randomly divided into 4 groups (n=5), which were i.v. injected with PBS, nPLT (2×10^8 platelets), eDePLT (2×10^8 platelets), and free eHAC (5 mg/kg) every three days for four times starting from day 1 post-surgery. After 2 weeks of the last treatment, the tumor tissues were isolated, weighed, and cut into small pieces, which were then soaked in 2 mL blank medium containing collagenase (MilliporeSigma/C5138) and incubated at 37° C. for 1 h. The cell suspensions were centrifugated at 1200 rpm for 3 min, and 200 μL of the corresponding supernatants were collected and subjected to ELISA analysis for IFN-γ and TNF-α. The single cell suspensions were collected through filtration of the suspension over 40 µm nylon cell strainer (Falcon®/352340). For the staining, 1×10^6 cells for each sample were collected and incubated with 100 μL of PBS containing PE anti-mouse CD3 antibody and APC anti-mouse CD8a antibody in the dark for 30 min at 4° C. Then, the samples were centrifuged at 2,000 rpm for 5 min at room temperature. The pellets were resuspended in PBS and subjected to the flow cytometry analysis.
For orientation: A flow cytometer gives signals particle by particle.

Experiment [6] has as its target T2, PD-L1. Briefly: Immunoblot analysis of PD-L1 expression in LRP-1-deficient PEA-10 cells. The class given is cell-based, murine. As to conditions: PEA-10 (LRP-1-deficient), various concentrations, 8 h, CM.
Excerpt: as §1, §2, §3
(In western blotting, separated proteins are transferred to a membrane and probed.)

T1 sequence (Q9NZQ7 19-290): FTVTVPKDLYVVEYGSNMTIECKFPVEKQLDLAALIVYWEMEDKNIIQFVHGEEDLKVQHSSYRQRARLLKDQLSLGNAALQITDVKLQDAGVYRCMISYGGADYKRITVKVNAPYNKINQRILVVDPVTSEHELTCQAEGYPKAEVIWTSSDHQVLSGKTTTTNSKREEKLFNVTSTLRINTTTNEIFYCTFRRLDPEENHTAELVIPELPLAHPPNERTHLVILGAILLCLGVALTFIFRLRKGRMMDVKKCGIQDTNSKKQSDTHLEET

Take `Cc1c(COc2cc(OCc3cccc(C#N)c3)c(CN3C[C@H](O)C[C@@H]3C(=O)NCCOCc3cn(CCCC(=O)N(CC#N)S(=O)(=O)c4ccc(C(=O)NCCCn5c(Sc6cc7c(cc6I)OCO7)nc6c(N)ncnc65)cc4)nn3)cc2Cl)cccc1-c1ccc2c(c1)OCCO2` [eHAC, (2R,4R)—N-(2-((1-(4-((4-((3-(6-amino-8-((6-iodobenzo[d][1,3]dioxol-5-yl)thio)-9H-purin-9-yl)propyl)carbamoyl)-N-(cyanomethyl)phenyl)sulfonamido)-4-oxobutyl)-1H-1,2,3-triazol-4-yl)methoxy)ethyl)-1-(5-chloro-2-((3-cyanobenzyl)oxy)-4-((3-(2,3-dihydrobenzo[b][1,4]dioxin-6-yl)-2-methylbenzyl)oxy)benzyl)-4-hydroxypyrrolidine-2-carboxamide]: the “tumor recurrence at the surgical site (bioluminescence)” value in experiment [1] is “same severe relapse”. The PD-L1 distribution entry in experiment [2] was “rapidly aggregated into punctate structures and moved towards cytosol”. Also, the PD-L1 degradation potency result in experiment [3] is on record as “considerably compromised”. Moreover, in experiment [4] (4T1 cells, 5 μM, 8 h), the “PD-L1 expression in presence of lysosome degradation inhibitor leupeptin” value is “rescue effect on PD-L1 expression”. Besides, in experiment [4] (4T1 cells, blank medium), the “PD-L1 expression, eHAC dispersed in blank medium (BM)” value is on record as “just slightly reduced the PD-L1 expression within 12 h”. The “PD-L1 levels, eHAC suspended in conditioned medium (CM)” value in experiment [4] (4T1 cells, conditioned medium, same time points) is listed as “could efficiently downregulate PD-L1 levels”. In experiment [4] (conditioned medium), the “time and concentration dependence of PD-L1 reduction” value was “in a time- and concentration-dependent manner”. In experiment [5], the “infiltration / ratio of CD3+CD8+ T cells in tumor tissues” value was “slightly elevated the ratio of CD3^+CD8^+ T cells”. Also, the PD-L1 degradation entry in experiment [6] is on record as “failed to induce obvious PD-L1 degradation”.
